Assay results taken from US11208411B2, “Compositions and methods for treating parasitic diseases” (THE REGENTS OF THE UNIVERSITY OF CALIFORNIA, priority 2016, dated 2021).
Like-named read-outs stand apart in the source and are kept apart here.

Experiments:
Src = Src (Homo sapiens (Human), UniProt P12931); test: Src kinase inhibition; format: biochemical; parameters: Src % Inhibition: concentration or dose not given beside the values
[1] = Stability in rat liver microsomes; format: in vitro ADME; conditions: 1 mM NADPH, read-out: Microsome Half-Life
[2] = tested on: T. gondii type I RH strain, 2F clone; test: Inhibition of parasite growth in vitro in HFF monolayers (beta-Gal readout); format: cell-based
TgCDPK1 = TgCDPK1 (Toxoplasma gondii, UniProt Q9BJF5); test: TgCDPK1 kinase assay, syntide-2 peptide-based ELISA; format: biochemical
Sequence of TgCDPK1 (Q9BJF5 1-507): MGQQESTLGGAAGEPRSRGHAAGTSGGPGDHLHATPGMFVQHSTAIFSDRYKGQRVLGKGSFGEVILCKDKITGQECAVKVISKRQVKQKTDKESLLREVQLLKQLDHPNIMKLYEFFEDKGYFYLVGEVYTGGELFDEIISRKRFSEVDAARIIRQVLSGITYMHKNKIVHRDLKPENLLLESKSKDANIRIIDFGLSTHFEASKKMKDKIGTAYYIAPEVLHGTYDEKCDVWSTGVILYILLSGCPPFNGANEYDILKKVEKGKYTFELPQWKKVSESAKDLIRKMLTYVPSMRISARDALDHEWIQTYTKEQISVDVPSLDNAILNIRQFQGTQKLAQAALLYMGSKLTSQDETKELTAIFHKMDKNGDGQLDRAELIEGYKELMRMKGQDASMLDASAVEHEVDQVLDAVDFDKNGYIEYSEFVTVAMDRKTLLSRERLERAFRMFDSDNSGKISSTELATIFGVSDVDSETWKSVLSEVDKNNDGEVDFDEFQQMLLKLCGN

In vivo pharmacokinetics = conditions: iv, 3 mg/kg
[3] = Toxoplasma gondii, 72 h; read-out: Parasite Growth EC50

Sequence of Src (P12931 whole entry, looked up): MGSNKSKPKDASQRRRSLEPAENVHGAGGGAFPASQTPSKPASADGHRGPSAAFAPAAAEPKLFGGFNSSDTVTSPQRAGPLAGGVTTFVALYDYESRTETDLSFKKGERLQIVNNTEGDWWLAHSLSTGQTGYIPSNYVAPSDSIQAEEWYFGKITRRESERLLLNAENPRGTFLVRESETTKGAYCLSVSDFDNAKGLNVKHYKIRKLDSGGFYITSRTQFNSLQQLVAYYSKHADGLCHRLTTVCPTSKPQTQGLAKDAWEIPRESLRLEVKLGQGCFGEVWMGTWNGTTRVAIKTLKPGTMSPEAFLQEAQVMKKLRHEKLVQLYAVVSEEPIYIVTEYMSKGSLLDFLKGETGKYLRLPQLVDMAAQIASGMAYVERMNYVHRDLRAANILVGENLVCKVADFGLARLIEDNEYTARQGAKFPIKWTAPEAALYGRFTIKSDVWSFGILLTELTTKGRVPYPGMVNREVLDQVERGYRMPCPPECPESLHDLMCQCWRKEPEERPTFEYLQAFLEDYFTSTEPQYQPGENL

SMILES	Src % Inhibition (Src) [%]	also measured
Nc1ncnc2c1c(Sc1cccc(Cl)c1)nn2CC1CCNCC1 [FUR 5-56]	102.82	–
Nc1ncnc2c1c(Oc1ccc(F)c(Cl)c1)nn2CC1CCNCC1 [GXJ261, 3-(3-chloro-4-fluorophenoxy)-1-(piperidin-4-ylmethyl)-1H-pyrazolo[3,4-d]pyrimidin-4-amine]	78.16	–
Cc1cccc(Oc2nn(C(C)(C)C)c3ncnc(N)c23)c1 [GXJ176, 1-(tert-butyl)-3-(m-tolyloxy)-1H-pyrazolo[3,4-d]pyrimidin-4-amine]	84.24	–
Nc1ncnc2c1c(Sc1c[nH]c3ccccc13)nn2CC1CCNCC1 [FUR 5-57, 3-((1H-indol-3-yl)thio)-1-(piperidin-4-ylmethyl)-1H-pyrazolo[3,4-d]pyrimidin-4-amine]	–	half-life [1]: 12 min
CC(C)(C)n1nc(Sc2cccc(Cl)c2)c2c(N)ncnc21 [GXJ186, 1-(tert-butyl)-3-((3-chlorophenyl)thio)-1H-pyrazolo[3,4-d]pyrimidin-4-amine]	72.84	–
CC(C)(C)n1nc(Cc2cccc(Cl)c2)c2c(N)ncnc21 [Compound 3CIB-PP1, 1-(tert-butyl)-3-(3-chlorobenzyl)-1H-pyrazolo[3,4-d]pyrimidin-4-amine, reference compound]	18.48	–
CC(C)(C)n1nc(Cc2cc(F)cc(F)c2)c2c(N)ncnc21 [CZ75, 1-(tert-butyl)-3-(3,5-difluorobenzyl)-1H-pyrazolo[3,4-d]pyrimidin-4-amine]	91.31	–
Nc1ncnc2c1c(Oc1cccc(Cl)c1)nn2CC1CCNC(=O)C1 (stereo not shown) [FUR7-36, 4-((4-amino-3-(3-chlorophenoxy)-1H-pyrazolo[3,4-d]pyrimidin-1-yl)methyl)piperidin-2-one]	96.13	–
CC(C)(C)n1nc(Nc2cccc(Cl)c2)c2c(N)ncnc21 [LZH118, 1-(tert-butyl)-N^3-(3-chlorophenyl)-1H-pyrazolo[3,4-d]pyrimidine-3,4-diamine]	21.86	–
Nc1ncnc2c1c(Cc1c[nH]c3ccccc13)nn2CC1CCNCC1 [FUR6-95, 3-((1H-indol-3-yl)methyl)-1-(piperidin-4-ylmethyl)-1H-pyrazolo[3,4-d]pyrimidin-4-amine]	92.70	EC50 [2, 3]: > 10000 nM; IC50 (Src): > 10 µM; IC50 (TgCDPK1): 23.9 nM; half-life [1]: > 60 min
Nc1ncnc2c1c(Oc1cccc(Cl)c1)nn2CC1CCNCC1 [GXJ237, 3-(3-chlorophenoxy)-1-(piperidin-4-ylmethyl)-1H-pyrazolo[3,4-d]pyrimidin-4-amine]	87.87	–
Nc1ncnc2c1c(Sc1cccc(Cl)c1)cn2CC1CCNCC1 [FUR 6-139, 5-((3-chlorophenyl)thio)-7-(piperidin-4-ylmethyl)-7H-pyrrolo[2,3-d]pyrimidin-4-amine]	97.49	–
Nc1ncnc2c1c(Oc1cccc(Cl)c1)nn2CC1CCCNC1 (stereo not shown) [FUR6-11, 3-(3-chlorophenoxy)-1-(piperidin-3-ylmethyl)-1H-pyrazolo[3,4-d]pyrimidin-4-amine]	90.05	–
Nc1ncnc2c1c(Oc1cccc(Cl)c1)nn2Cc1ccncc1 [FUR6-6, 3-(3-chlorophenoxy)-1-(pyridin-4-ylmethyl)-1H-pyrazolo[3,4-d]pyrimidin-4-amine]	93.91	–
Nc1ncnc2c1c(Oc1cccc(Cl)c1)nn2CC1CCOCC1 [FUR7-89, 3-(3-chlorophenoxy)-1-((tetrahydro-2H-pyran-4-yl)methyl)-1H-pyrazolo[3,4-d]pyrimidin-4-amine]	77.33	–
Nc1ncnc2c1c(Oc1cccc(Cl)c1)nn2CC1CCNC1 (stereo not shown) [FUR6-13, 3-(3-chlorophenoxy)-1-(pyrrolidin-3-ylmethyl)-H-pyrazolo[3,4-d]pyrimidin-4-amine]	99.50	–
Nc1ncnc2c1c(Cc1cc(F)cc(F)c1)nn2CC1CCNCC1 [MLC468, 3-(3,5-difluorobenzyl)-1-(piperidin-4-ylmethyl)-1H-pyrazolo[3,4-d]pyrimidin-4-amine]	94.97	–
CC(C)(C)n1nc(Cc2csc3ccccc23)c2c(N)ncnc21 [CZ43, 3-(benzo[b]thiophen-3-ylmethyl)-1-(tert-butyl)-1H-pyrazolo[3,4-d]pyrimidin-4-amine]	28.21	EC50 [2, 3]: 135 nM; IC50 (Src): 0.014 µM; IC50 (TgCDPK1): 7.45 nM; half-life [1]: 2.5 min

SMILES	Src % Inhibition (Src) [%]	also measured
Nc1ncnc2c1c(Oc1cccc(Cl)c1)nn2CC1(C(F)(F)F)CC1 [FUR7-2, 3-(3-chlorophenoxy)-1-((1-(trifluoromethyl)cyclopropyl)methyl)-1H-pyrazolo[3,4-d]pyrimidin-4-amine]	91.63	–
CN1CCC(Cn2nc(Oc3cccc(Cl)c3)c3c(N)ncnc32)CC1 [FUR7-30, 3-(3-chlorophenoxy)-1-((1-methylpiperidin-4-yl)methyl)-1H-pyrazolo[3,4-d]pyrimidin-4-amine]	96.94	–
COc1cccc(Oc2nn(C(C)(C)C)c3ncnc(N)c23)c1 [GXJ230, 1-(tert-butyl)-3-(3-methoxyphenoxy)-1H-pyrazolo[3,4-d]pyrimidin-4-amine]	77.53	–
Cc1cccc(Sc2nn(CC3CCNCC3)c3ncnc(N)c23)c1 [FUR7-77, 1-(piperidin-4-ylmethyl)-3-(m-tolylthio)-1H-pyrazolo[3,4-d]pyrimidin-4-amine]	80.21	–
Nc1ncnc2c1c(Cc1c[nH]c3ccccc13)nn2CC1(C(F)(F)F)CC1 [WXT-2, 3-((1H-indol-3-yl)methyl)-1-((1-(trifluoromethyl)cyclopropyl)methyl)-1H-pyrazolo[3,4-d]pyrimidin-4-amine]	96.00	EC50 ([2]; Toxoplasma gondii, 72 h, read-out: Parasite Growth EC50): 206 nM; IC50 (Src): > 10 µM; IC50 (TgCDPK1): 38.1 nM; half-life [1]: 4.7 min
Cc1cccc(Sc2nn(C(C)(C)C)c3ncnc(N)c23)c1 [FUR7-68, 1-(tert-butyl)-3-(m-tolylthio)-1H-pyrazolo[3,4-d]pyrimidin-4-amine]	64.39	EC50 [2, 3]: 376 nM; IC50 (Src): > 10 µM; IC50 (TgCDPK1): 22.9 nM; half-life [1]: 1 min
Nc1ncnc2c1c(Cc1cccc(Cl)c1)nn2CC1CCNCC1 [FUR6-157, 3-(3-chlorobenzyl)-1-(piperidin-4-ylmethyl)-1H-pyrazolo[3,4-d]pyrimidin-4-amine]	87.11	–
CC(C)(C)n1nc(Oc2cccc(Br)c2)c2c(N)ncnc21 [GXJ177, 3-(3-bromophenoxy)-1-(tert-butyl)-1H-pyrazolo[3,4-d]pyrimidin-4-amine]	73.35	–
Nc1ncnc2c1c(Sc1cccc(Cl)c1)nn2CC1CCNCC1(F)F (stereo not shown) [FUR 7-76]	76.47	–
CC(C)(C)n1nc(Cc2c[nH]c3ccccc23)c2c(N)ncnc21 [LJQ-138, 3-((1H-indol-3-yl)methyl)-1-(tert-butyl)-1H-pyrazolo[3,4-d]pyrimidin-4-amine]	74.94	EC50 [2, 3]: 177 nM; IC50 (Src): > 10 µM; IC50 (TgCDPK1): 12.3 nM; half-life [1]: 2 min
Nc1ncnc2c1c(Oc1cccc(Cl)c1)nn2CC1CNC1 [FUR6-12, 1-(azetidin-3-ylmethyl)-3-(3-chlorophenoxy)-1H-pyrazolo[3,4-d]pyrimidin-4-amine]	91.81	–
Nc1ncnc2c1c(Nc1cccc(Cl)c1)nn2CC1CCNCC1 [GXJ276, N^3-(3-chlorophenyl)-1-(piperidin-4-ylmethyl)-1H-pyrazolo[3,4-d]pyrimidine-3,4-diamine]	24.50	–
CC(C)(C)n1nc(Oc2cc(F)cc(F)c2)c2c(N)ncnc21 [GXJ229, 1-(tert-butyl)-3-(3,5-difluorophenoxy)-1H-pyrazolo[3,4-d]pyrimidin-4-amine]	87.48	–
CC(C)(C)n1nc(Sc2c[nH]c3ccccc23)c2c(N)ncnc21 [FUR6-159, 3-((1H-indol-3-yl)thio)-1-(tert-butyl)-1H-pyrazolo[3,4-d]pyrimidin-4-amine]	97.66	EC50 [2, 3]: > 10000 nM; IC50 (Src): > 10 µM; IC50 (TgCDPK1): 202 nM; half-life [1]: 2.6 min
Nc1ncnc2c1c(Oc1cccc(Cl)c1)nn2CC1CCNCC1(F)F (stereo not shown) [FUR7-27, 3-(3-chlorophenoxy)-1-((3,3-difluoropiperidin-4-yl)methyl)-1H-pyrazolo[3,4-d]pyrimidin-4-amine]	87.87	–
CC(C)(C)n1nc(Oc2cccc(Cl)c2)c2c(N)ncnc21 [GXJ184, 1-(tert-butyl)-3-(3-chlorophenoxy)-1H-pyrazolo[3,4-d]pyrimidin-4-amine]	79.94	Co (initial conc.) (In vivo pharmacokinetics): 5471.09 ng/mL
CC(C)(C)n1nc(Oc2cccc(C(F)(F)F)c2)c2c(N)ncnc21 [GXJ178, 1-(tert-butyl)-3-(3-(trifluoromethyl)phenoxy)-1H-pyrazolo[3,4-d]pyrimidin-4-amine]	79.53	–
CC(C)(C)n1nc(Cc2coc3ccccc23)c2c(N)ncnc21 [LJQ-145, 3-(benzofuran-3-ylmethyl)-1-(tert-butyl)-1H-pyrazolo[3,4-d]pyrimidin-4-amine]	36.04	EC50 [2, 3]: 2030 nM; IC50 (TgCDPK1): 23.7 nM; half-life [1]: 1.7 min
